Experimental data from the supplement of paper PMC10307832.

How the values were obtained:
Assay in all cases: relative viability (nuclei count vs DMSO), 5 days (fraction); higher = more cells survive
SW 1573 = test system: SW 1573
Summary of the method: (§1)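 Dosing by pin tool came one day after lung cancer cell lines were seeded in 1536-well plates, using either one drug or a fixed anchor-drug dose plus five library-drug doses (not always all listed) in √10 steps. After 5 days, nuclei were counted on 4× images. Relative viability is treated-well nuclei count divided by vehicle-well nuclei count, and values are medians of duplicate plates.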

ChaGo-K-1 = test system: ChaGo-K-1
Summary of the method: as §1

LCLC-103H = test system: LCLC-103H
Summary of the method: as §1

NCI-H1666 = test system: NCI-H1666
Summary of the method: as §1

SK-LU-1 = test system: SK-LU-1
Summary of the method: as §1

NCI-H322M = test system: NCI-H322M
Summary of the method: as §1

RERF-LC-KJ = test system: RERF-LC-KJ
Summary of the method: as §1

NCI-H1563 = test system: NCI-H1563
Summary of the method: as §1

NCI-H2342 = test system: NCI-H2342
Summary of the method: as §1

NCI-H23 = test system: NCI-H23
Summary of the method: as §1

SW 900 = test system: SW 900
Summary of the method: as §1

EKVX = test system: EKVX
Summary of the method: as §1

NCI-H2405 = test system: NCI-H2405
Summary of the method: as §1

PC-14 = test system: PC-14
Summary of the method: as §1

EPLC-272H = test system: EPLC-272H
Summary of the method: as §1

NCI-H1975 = test system: NCI-H1975
Summary of the method: as §1

LU99A = test system: LU99A
Summary of the method: as §1

EMC-BAC-2 = test system: EMC-BAC-2
Summary of the method: as §1

HCC-827 = test system: HCC-827
Summary of the method: as §1

NCI-H2126 = test system: NCI-H2126
Summary of the method: as §1

LK-2 = test system: LK-2
Summary of the method: as §1

HCC-78 = test system: HCC-78
Summary of the method: as §1

CC(=O)O[C@@]12CO[C@@H]1C[C@H](O)[C@@]1(C)C(=O)[C@H](O)C3=C(C)[C@@H](OC(=O)[C@H](O)[C@@H](NC(=O)OC(C)(C)C)c4ccccc4)C[C@@](O)([C@@H](OC(=O)c4ccccc4)[C@H]21)C3(C)C [Docetaxel] + Cc1nc(Nc2ncc(C(=O)Nc3c(C)cccc3Cl)s2)cc(N2CCN(CCO)CC2)n1 [Dasatinib] (partner 0.075 µM)
relative viability (SW 1573; first compound 0.0002 µM): 0.307 | relative viability (SW 1573; first compound 0.000632 µM): 0.19 | relative viability (SW 1573; first compound 0.002 µM): 0.122 | relative viability (SW 1573; first compound 0.02 µM): 0.0658 | relative viability (ChaGo-K-1; first compound 0.0002 µM): 0.486 | relative viability (ChaGo-K-1; first compound 0.000632 µM): 0.429 | relative viability (ChaGo-K-1; first compound 0.002 µM): 0.404 | relative viability (ChaGo-K-1; first compound 0.006325 µM): 0.257 | relative viability (ChaGo-K-1; first compound 0.02 µM): 0.132 | relative viability (LCLC-103H; first compound 0.0002 µM): 0.34 | relative viability (LCLC-103H; first compound 0.000632 µM): 0.456 | relative viability (LCLC-103H; first compound 0.002 µM): 0.337 | relative viability (LCLC-103H; first compound 0.006325 µM): 0.311 | relative viability (LCLC-103H; first compound 0.02 µM): 0.19 | relative viability (NCI-H1666; first compound 0.0002 µM): 0.684 | relative viability (NCI-H1666; first compound 0.000632 µM): 0.594 | relative viability (NCI-H1666; first compound 0.002 µM): 0.465 | relative viability (NCI-H1666; first compound 0.006325 µM): 0.414 | relative viability (NCI-H1666; first compound 0.02 µM): 0.284 | relative viability (SK-LU-1; first compound 0.0002 µM): 0.175 | relative viability (SK-LU-1; first compound 0.000632 µM): 0.156 | relative viability (SK-LU-1; first compound 0.006325 µM): 0.122 | relative viability (SK-LU-1; first compound 0.02 µM): 0.132 | relative viability (NCI-H322M; first compound 0.0002 µM): 0.242 | relative viability (NCI-H322M; first compound 0.000632 µM): 0.251 | relative viability (NCI-H322M; first compound 0.002 µM): 0.372 | relative viability (NCI-H322M; first compound 0.006325 µM): 0.406 | relative viability (NCI-H322M; first compound 0.02 µM): 0.346 | relative viability (RERF-LC-KJ; first compound 0.0002 µM): 0.754 | relative viability (RERF-LC-KJ; first compound 0.000632 µM): 0.586 | relative viability (RERF-LC-KJ; first compound 0.002 µM): 0.295 | relative viability (RERF-LC-KJ; first compound 0.006325 µM): 0.264 | relative viability (RERF-LC-KJ; first compound 0.02 µM): 0.155 | relative viability (NCI-H1563; first compound 0.0002 µM): 0.433 | relative viability (NCI-H1563; first compound 0.000632 µM): 0.454 | relative viability (NCI-H1563; first compound 0.002 µM): 0.423 | relative viability (NCI-H1563; first compound 0.006325 µM): 0.406 | relative viability (NCI-H1563; first compound 0.02 µM): 0.339 | relative viability (NCI-H2342; first compound 0.0002 µM): 0.309 | relative viability (NCI-H2342; first compound 0.000632 µM): 0.326 | relative viability (NCI-H2342; first compound 0.002 µM): 0.308 | relative viability (NCI-H2342; first compound 0.006325 µM): 0.285 | relative viability (NCI-H2342; first compound 0.02 µM): 0.265 | relative viability (NCI-H23; first compound 0.0002 µM): 0.838 | relative viability (NCI-H23; first compound 0.000632 µM): 0.777 | relative viability (NCI-H23; first compound 0.002 µM): 0.483 | relative viability (NCI-H23; first compound 0.006325 µM): 0.188 | relative viability (NCI-H23; first compound 0.02 µM): 0.0867 | relative viability (SW 900; first compound 0.0002 µM): 0.612 | relative viability (SW 900; first compound 0.000632 µM): 0.218 | relative viability (SW 900; first compound 0.002 µM): 0.171 | relative viability (SW 900; first compound 0.006325 µM): 0.221 | relative viability (SW 900; first compound 0.02 µM): 0.127 | relative viability (EKVX; first compound 0.0002 µM): 0.472 | relative viability (EKVX; first compound 0.000632 µM): 0.45 | relative viability (EKVX; first compound 0.002 µM): 0.296 | relative viability (EKVX; first compound 0.006325 µM): 0.264 | relative viability (EKVX; first compound 0.02 µM): 0.195 | relative viability (NCI-H2405; first compound 0.0002 µM): 0.2 | relative viability (NCI-H2405; first compound 0.000632 µM): 0.178 | relative viability (NCI-H2405; first compound 0.002 µM): 0.199 | relative viability (NCI-H2405; first compound 0.006325 µM): 0.149 | relative viability (NCI-H2405; first compound 0.02 µM): 0.14 | relative viability (PC-14; first compound 0.0002 µM): 0.286 | relative viability (PC-14; first compound 0.000632 µM): 0.188 | relative viability (PC-14; first compound 0.002 µM): 0.0514 | relative viability (PC-14; first compound 0.006325 µM): 0.0304 | relative viability (PC-14; first compound 0.02 µM): 0.0231 | relative viability (EPLC-272H; first compound 0.0002 µM): 0.358 | relative viability (EPLC-272H; first compound 0.000632 µM): 0.235 | relative viability (EPLC-272H; first compound 0.002 µM): 0.142 | relative viability (EPLC-272H; first compound 0.006325 µM): 0.107 | relative viability (EPLC-272H; first compound 0.02 µM): 0.0615 | relative viability (NCI-H1975; first compound 0.0002 µM): 0.377 | relative viability (NCI-H1975; first compound 0.000632 µM): 0.284 | relative viability (NCI-H1975; first compound 0.002 µM): 0.152 | relative viability (NCI-H1975; first compound 0.006325 µM): 0.127 | relative viability (NCI-H1975; first compound 0.02 µM): 0.107 | relative viability (LU99A; first compound 0.0002 µM): 0.588 | relative viability (LU99A; first compound 0.000632 µM): 0.372 | relative viability (LU99A; first compound 0.002 µM): 0.285 | relative viability (LU99A; first compound 0.006325 µM): 0.277 | relative viability (EMC-BAC-2; first compound 0.0002 µM): 0.298 | relative viability (EMC-BAC-2; first compound 0.000632 µM): 0.232 | relative viability (EMC-BAC-2; first compound 0.002 µM): 0.192 | relative viability (EMC-BAC-2; first compound 0.006325 µM): 0.228 | relative viability (EMC-BAC-2; first compound 0.02 µM): 0.132 | relative viability (HCC-827; first compound 0.0002 µM): 0.237 | relative viability (HCC-827; first compound 0.000632 µM): 0.297 | relative viability (HCC-827; first compound 0.002 µM): 0.289 | relative viability (HCC-827; first compound 0.006325 µM): 0.22 | relative viability (HCC-827; first compound 0.02 µM): 0.155 | relative viability (NCI-H2126; first compound 0.0002 µM): 0.659 | relative viability (NCI-H2126; first compound 0.000632 µM): 0.573 | relative viability (NCI-H2126; first compound 0.002 µM): 0.363 | relative viability (NCI-H2126; first compound 0.006325 µM): 0.339 | relative viability (LK-2; first compound 0.0002 µM): 0.212 | relative viability (LK-2; first compound 0.000632 µM): 0.268 | relative viability (LK-2; first compound 0.002 µM): 0.181 | relative viability (LK-2; first compound 0.006325 µM): 0.21 | relative viability (LK-2; first compound 0.02 µM): 0.113 | relative viability (HCC-78; first compound 0.0002 µM): 0.352 | relative viability (HCC-78; first compound 0.000632 µM): 0.3 | relative viability (HCC-78; first compound 0.002 µM): 0.235 | relative viability (HCC-78; first compound 0.006325 µM): 0.248 | relative viability (HCC-78; first compound 0.02 µM): 0.3
